Reference: article PMC5789975, “Computer-aided Discovery of Peptides that Specifically Attack Bacterial Biofilms” (Scientific Reports, 2018)
In brackets after ≈: the same amount, converted by molar mass. Where two headings read alike, the source gives them in different places. Ends that are not written are not given here.

Legend:
[1] = test system: S. aureus (MRSA SAP0017) biofilms; assay: Static microtitre plate antibiofilm screen (crystal violet); assay type: cell-based, Staphylococcus aureus; conditions: SPOT-synthesized, highest peptide concentration evaluated, compared to untreated controls; listed from most to least active
Protocol: The SPOT-synthesized peptides were evaluated for their antibiofilm activity in vitro as described previously. Briefly, 5 μl of SPOT-peptide stock solution or a corresponding serial dilution was placed in a 96-well polypropylene round bottom plate (Corning Inc. Corning, NY) and 95 μl of a 1/100 dilution of an overnight culture of MRSA SAP0017 in TSB supplemented with 1% glucose was added to each well. The plates were incubated overnight at 37 °C to allow for bacterial growth and biofilm maturation. After 24 hours, the media containing planktonic bacteria was rinsed from each well with distilled water and the remaining biomass was stained with 0.1% crystal violet. The unbound dye was rinsed away and the biofilm bound dye was suspended in 70% ethanol and the absorbance at 595 nm was recorded on a plate reader. Percent biofilm inhibition was calculated by comparison to the amount of crystal violet stain in the untreated controls (defined as 100%) and the sterility control wells (defined as 0%). Results from three separate biological replicates were averaged and outliers were identified using the modified Thompson Tau test and removed from the analysis. The antibiofilm activity of all SPOT-derived peptides was assessed at multiple concentrations (up to five 2-fold dilutions from the stock solution) and the peptide concentration yielding the largest difference in percent inhibition of biofilm growth was used in subsequent analysis.

[2] = test system: planktonic S. aureus MRSA (SAP0017); assay: MIC determination, broth microdilution; assay type: cell-based, Staphylococcus aureus; conditions: for MIC, MHB: Mueller Hinton Broth; for MIC, MHB / MIC, TSB with 1% Glucose: broth microdilution, ~5 × 10^5 CFU/ml, 37 °C overnight, visual read, mean of three biological replicates; for MIC, TSB with 1% Glucose: Tryptic Soy Broth with 1% glucose; for MIC: Staphylococcus aureus, MRSA
Protocol: The MIC of the synthesized peptides was determined in both Mueller Hinton Broth (MHB) and Tryptic Soy Broth (TSB) supplemented with 1% glucose, using the broth microdilution method[21] with slight modifications. Briefly, 10 μl of a 10× concentrated peptide stock solution, vancomycin antibiotic, or vehicle control (water) was placed in the bottom of a well in a 96-well polypropylene round bottom plate (Corning Inc. Corning, NY). A bacterial suspension of S. aureus MRSA (SAP0017, clinical isolate kindly provided by Dr. Tony Chow, Vancouver General Hospital) was prepared from an overnight culture to a final cell density of ~5 × 10^5 CFU/ml and 90 μl of this was added to each well.

[3] = test system: IL-1β production from LPS-stimulated PBMCs; assay: Suppression of IL-1β from LPS-stimulated PBMCs (ELISA); assay type: cell-based, human; conditions: PBMCs stimulated with 10 ng/ml P. aeruginosa PAO1 LPS; 10, 20, 40 µM peptide; six donors
Protocol: (§1) The cytotoxicity and immunomodulatory activity of both 1018 and 3002 was assessed as described previously. Briefly, peripheral blood mononuclear cells (PBMCs) were collected from healthy volunteers in accordance with the University of British Columbia ethics guidelines. PBMCs were plated in Costar 96-well flat bottom tissue culture treated plates at a final density of 1 × 10^6 cells/ml in RPMI media supplemented with 10% fetal bovine serum. Both peptides were tested at final concentrations of 40, 20 and 10 µM. Cytotoxicity was assessed using the Cytotoxicity Detection Kit (Roche Diagnostics, Basel, Switzerland) which measures lactate dehydrogenase activity released from damaged cells. Immune modulation was characterized by measuring the production of MCP-1 chemokine by induced by peptide alone as well as the suppression of interleukin (IL)-1β from PBMCs stimulated with 10 ng/ml Pseudomonas aeruginosa PAO1 lipopolysaccharide. Levels of MCP-1 and IL-1β were quantified by enzyme linked immunosorbent assays (ELISAs) using kits from eBioscience Inc. (San Diego, CA).

MRSA USA300 LAC = assay: Murine cutaneous abscess model; assay type: in vivo, CD-1 mice; conditions: 14 mg/kg
Protocol: The in vivo activity of the identified antibiofilm peptide 3002 and the parental compound 1018 was evaluated using a recently described murine abscess model of chronic MRSA infections. All animal experiments were performed in accordance with The Canadian Council on Animal Care (CCAC) guidelines and were approved by the University of British Columbia Animal Care Committee. Briefly, the fur on the backs of 6-week old female CD-1 mice (Charles River Laboratories, Wilmington, MA) was removed by shaving and subsequent treatment with depilatory cream. MRSA USA300 LAC was grown to an optical density at 600 nm of 1 in tryptic soy broth (TSB) at which point cells were washed twice with sterile PBS and then suspended in PBS to a final cell density of 5 × 10^7 CFU/50 μL. Mice were infected with 50 μL of bacteria subcutaneously on the right flank of the back and 1 hour later, given saline (for controls) or treated with 14 mg/kg peptide (1018 or 3002) via intra-abscess injection. Mice were monitored daily and their weight as well as abscess lesion sizes (measured using a caliper) were recorded every 24 hrs. Visible dermonecrosis or white lesions (filled with pus) were considered as part of the abscess lesion while swelling/inflammation was disregarded in the abscess size measurements. Three days post-infection, abscesses were excised and homogenized using a Bead Ruptor 4 tissue homogenizer (OMNI International, Kennesaw GA) for 5 minutes and serially plated for viable CFU quantification.

[4] = test system: MCP-1 production from PBMCs; assay: MCP-1 chemokine induction by peptide alone (ELISA); assay type: cell-based, human; conditions: highest peptide concentration evaluated (40 µM), compared to 1018; six donors
Protocol: as §1

[5] = test system: MRSA SAP0017 biofilms grown in flow cells; assay: Eradication of pre-formed biofilms in flow cells; assay type: cell-based, Staphylococcus aureus; conditions: BM2 media, SYTO-9/propidium iodide, confocal microscopy
Protocol: Bacterial biofilms were grown in BM2 media (62 mM potassium phosphate buffer, pH 7, 7 mM (NH4)2SO4, 2 mM MgSO4, 10 μM FeSO4 and 0.4% (wt/vol) glucose) for 48 hours followed by treatment with peptide (2 or 0.125 µM) for an additional 24 hours. The samples were stained with SYTO-9 and propidium iodide fluorescent dyes to image total and dead cells, respectively. Flow-cell images were acquired on an Olympus FluoView FV1000 confocal laser scanning microscope (Olympus Corp. Tokyo, Japan) and were analyzed with the Fiji software package.

[6] = test system: S. aureus (MRSA SAP0017) biofilms; assay: Static microtitre plate antibiofilm screen (crystal violet); assay type: cell-based, Staphylococcus aureus

Molecule | antibiofilm activity of SPOT-synthesized Experimental Validation Set peptides [1] | MIC, MHB [2] [µM] | MIC, TSB with 1% Glucose [2] [µM] | also measured
VQWIQIVVWRKR [compound 6, Experimental Validation Set peptide] | exhibited antibiofilm activity |  |  | 
IKWVLRKIVQII [compound 37, Experimental Validation Set peptide] | exhibited antibiofilm activity |  |  | 
IWLRLKVVLKRK-NH2 [compound 3006, QSAR–predicted antibiofilm peptide, >95% purity, C-terminally amidated] | exhibited antibiofilm activity | 4 | 32 | 
WIIRWIKIWLKI [compound 46, Experimental Validation Set peptide] | exhibited antibiofilm activity |  |  | 
GLIIKIIKKRLW [compound 26, Experimental Validation Set peptide] | exhibited antibiofilm activity |  |  | 
RRIIKILLWKLR [compound 10, Experimental Validation Set peptide] | exhibited antibiofilm activity |  |  | 
VIKVLIKRWLKL [compound 9, Experimental Validation Set peptide] | exhibited antibiofilm activity |  |  | 
LIVIQLLKKWWK [compound 41, Experimental Validation Set peptide] | exhibited antibiofilm activity |  |  | 
ILVRWIRWRIQW-NH2 [compound 3002, QSAR–predicted antibiofilm peptide, >95% purity, C-terminally amidated] | exhibited antibiofilm activity | 2 | 4 | suppression of IL-1β production [3]: in a concentration dependent manner to similar levels as seen for peptide 1018; reduction of abscess lesion size compared to untreated controls (MRSA USA300 LAC; single intra-abscess injection 1 h after infection, 3 days): 2.8 fold; effect on bacterial load recovered from the abscesses (MRSA USA300 LAC; single intra-abscess injection, CFU three days post-infection): neither peptide had any effect; MCP-1 production induced by peptide alone [4]: induced significantly more MCP-1 production; eradication of 2-day old pre-formed MRSA biofilms ([5]; 0.125 μM peptide for 24 h): effectively eradicated; eradication of 2-day old pre-formed MRSA biofilms ([5]; 2 µM peptide for 24 h): effectively eradicated; concentration effectively inhibiting MRSA biofilm growth (as low as) ([6]; >95% pure peptide, static microtitre plate assay): 1 µM; enhancement in antibiofilm potency compared to 1018 ([6]; >95% pure peptides, static microtitre plate assay): 8 fold
WKKVQWLKRLLL-NH2 [compound 3003, QSAR–predicted antibiofilm peptide, >95% purity, C-terminally amidated] | exhibited antibiofilm activity | 4 | 16 | residual biofilm growth ([6]; >95% pure peptide, 32 μM): ~ 40%
RRQWRGWVRIWL-NH2 [compound 3005, QSAR–predicted antibiofilm peptide, >95% purity, C-terminally amidated] | exhibited antibiofilm activity | 4 | 64 | 
VIKWLLKILRAI-NH2 [compound 3001, QSAR–predicted antibiofilm peptide, >95% purity, C-terminally amidated] | exhibited antibiofilm activity | 1 | 2 | 
CN[C@H](CC(C)C)C(=O)N[C@H]1C(=O)N[C@@H](CC(N)=O)C(=O)N[C@H]2C(=O)N[C@H]3C(=O)N[C@H](C(=O)N[C@H](C(=O)O)c4cc(O)cc(O)c4-c4cc3ccc4O)[C@H](O)c3ccc(c(Cl)c3)Oc3cc2cc(c3O[C@@H]2O[C@H](CO)[C@@H](O)[C@H](O)[C@H]2O[C@H]2C[C@](C)(N)[C@H](O)[C@H](C)O2)Oc2ccc(cc2Cl)[C@H]1O [Vancomycin, reference compound] |  |  |  | MIC ([2]; read-out: MIC, MHB): 0.34 µM (≈ 0.493 µg/mL); MIC ([2]; read-out: MIC, TSB with 1% Glucose): 0.68 µM (≈ 0.986 µg/mL)
LWQLWLKLKLKG [compound 56, Experimental Validation Set peptide] | exhibited antibiofilm activity |  |  | 
IQRWWKVWLKVI-NH2 [compound 3004, QSAR–predicted antibiofilm peptide, >95% purity, C-terminally amidated] | exhibited antibiofilm activity | 4 | 16 | 
KKWQLLIKWKLR [compound 11, Experimental Validation Set peptide] | exhibited antibiofilm activity |  |  | 
VLKIKVKIWVVK-NH2 [compound 3007, QSAR–predicted antibiofilm peptide, >95% purity, C-terminally amidated] | exhibited antibiofilm activity | 16 | >64 | 
IQLKLIWVKRKW [compound 48, Experimental Validation Set peptide] | exhibited antibiofilm activity |  |  | 
VLQIKKVLRLLL [compound 17, Experimental Validation Set peptide] | exhibited antibiofilm activity |  |  | 
